Test results taken from the NIST ThermoML archive (doi:10.1016/j.jct.2008.07.005).

Assay: xn = mol fraction of the nth substance listed
Details: 98.93 kPa, Liquid

OCC(O)CO [glycerol] + O
mass density [kg/m3]
Details	283.15 K	288.15 K	293.15 K	298.15 K	303.15 K	308.15 K
x1 = 0.002	1002.15	1001.53	1000.6	999.43	998.01	996.37
x1 = 0.005	1005.76	1005.11	1004.14	1002.93	1001.48	999.81
x1 = 0.01	1011.64	1010.93	1009.9	1008.63	1007.12	1005.42
x1 = 0.019	1022.85	1022.06	1020.89	1019.51	1017.89	1016.12
x1 = 0.03	1033.4	1032.52	1031.22	1029.73	1028.03	1026.18
x1 = 0.04	1043.36	1042.38	1040.97	1039.37	1037.58	1035.66
x1 = 0.05	1052.76	1051.69	1050.15	1048.46	1046.58	1044.59
x1 = 0.065	1065.9	1064.68	1062.99	1061.17	1059.16	1057.08
x1 = 0.08	1078.01	1076.64	1074.81	1072.85	1070.74	1068.56
x1 = 0.1	1092.7	1091.17	1089.16	1087.05	1084.79	1082.51
x1 = 0.125	1109.07	1107.35	1105.15	1102.86	1100.45	1098.03
x1 = 0.1526	1124.96	1123.05	1120.68	1118.23	1115.66	1113.11
x1 = 0.17	1133.96	1131.96	1129.5	1126.96	1124.3	1121.66
x1 = 0.18	1138.83	1136.77	1134.27	1131.68	1128.97	1126.28
x1 = 0.2	1147.94	1145.78	1143.22	1140.54	1137.73	1134.94

CC(O)CO (stereo not given) [1,2-propanediol] + O
mass density [kg/m3]
Details	283.15 K	288.15 K	293.15 K	298.15 K	303.15 K	308.15 K
x1 = 0.002	1000.28	999.66	998.73	997.56	996.13	994.48
x1 = 0.005	1001.15	1000.5	999.55	998.32	996.87	995.17
x1 = 0.01	1002.65	1001.93	1000.93	999.63	998.12	996.34
x1 = 0.019	1005.45	1004.9	1003.81	1002.37	1000.73	998.77
x1 = 0.03	1008.94	1007.94	1006.74	1005.17	1003.41	1001.32
x1 = 0.04	1012.38	1011.16	1009.69	1008.04	1006.07	1003.85
x1 = 0.05	1015.77	1014.38	1012.66	1010.8	1008.65	1006.42
x1 = 0.065	1020.67	1018.96	1016.94	1014.74	1012.36	1010.15
x1 = 0.08	1025.18	1023.18	1020.8	1018.36	1015.78	1013.54
x1 = 0.1	1030.57	1027.89	1025.18	1022.6	1019.88	1017.51
x1 = 0.125	1035.97	1032.58	1029.58	1027.01	1024.14	1021.52
x1 = 0.1526	1039.91	1036.53	1033.34	1030.86	1028.08	1024.73
x1 = 0.17	1041.79	1038.5	1035.11	1032.86	1030.11	1026.33
x1 = 0.18	1042.67	1039.47	1035.98	1033.9	1031.1	1027.06
x1 = 0.2	1043.92	1041	1037.19	1035.6	1032.73	1027.98

CCCO [propan-1-ol] + O
mass density [kg/m3]
Details	283.15 K	288.15 K	293.15 K	298.15 K	303.15 K	308.15 K
x1 = 0.002	998.53	997.69	996.58	995.4	994.2	992.72
x1 = 0.005	996.91	996.06	994.95	993.76	992.54	991.05
x1 = 0.009	994.87	994	992.87	991.66	990.43	988.92
x1 = 0.01	994.38	993.49	992.36	991.14	989.92	988.4
x1 = 0.02	989.99	988.99	987.82	986.54	985.27	983.68
x1 = 0.03	986.29	985.17	983.91	982.56	981.2	979.57
x1 = 0.05	979.96	978.27	977.1	975.49	973.96	972.3
x1 = 0.065	975.01	972.88	971.86	969.94	968.38	966.41
x1 = 0.08	969.18	966.99	965.87	963.72	961.92	959.82
x1 = 0.1	960.42	958.48	957.26	954.91	952.93	950.64
x1 = 0.13	947.97	946	944.52	941.96	939.8	937.47
x1 = 0.15	940.47	938.48	936.78	934.12	931.81	929.47
x1 = 0.17	933.5	931.45	929.49	926.68	924.32	922.05
x1 = 0.1856	928.41	926.35	924.19	921.23	918.84	916.61
x1 = 0.2	923.98	921.89	919.56	916.46	914.04	911.83

OCCCO [propan-1,3-diol] + O
mass density [kg/m3]
Details	283.15 K	288.15 K	293.15 K	298.15 K	303.15 K	308.15 K
x1 = 0.002	1000.12	999.49	998.61	997.63	996.05	994.51
x1 = 0.005	1000.99	1000.34	999.44	998.44	996.84	995.27
x1 = 0.01	1002.44	1001.75	1000.81	999.76	998.14	996.53
x1 = 0.019	1005.28	1004.53	1003.5	1002.37	1000.71	999
x1 = 0.03	1008.07	1007.24	1006.13	1004.91	1003.2	1001.41
x1 = 0.04	1010.8	1009.9	1008.71	1007.39	1005.63	1003.75
x1 = 0.05	1013.46	1012.49	1011.23	1009.82	1008	1006.03
x1 = 0.065	1017.32	1016.24	1014.85	1013.31	1011.4	1009.3
x1 = 0.08	1021.01	1019.75	1018.24	1016.57	1014.57	1012.35
x1 = 0.1	1025.57	1024.07	1022.38	1020.58	1018.45	1016.06
x1 = 0.125	1030.69	1028.92	1027.01	1025.02	1022.73	1020.19
x1 = 0.1526	1035.61	1033.62	1031.48	1029.18	1026.8	1024.09
x1 = 0.17	1038.35	1036.24	1033.94	1031.44	1029.04	1026.23
x1 = 0.18	1039.8	1037.62	1035.24	1032.61	1030.2	1027.36
x1 = 0.2	1042.35	1040.04	1037.56	1034.66	1032.25	1029.35
